Assay [1] addresses T1, HiBit-KRAS^G12C (Homo sapiens, UniProt P01116, G12C). Put plainly: HiBit degradation assay in MiaPaCa-2 HiBit-KRas^G12C cells. It counts as cell-based. Conditions: 24 hours. An outline of the steps: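 MiaPaCa-2 cells with CRISPR N-terminal HiBit knock-in on one endogenous KRAS^G12C allele, treated 24 hours at 37° C with compound titrated 10 μM to 20 nM (0.1% or 0.5% DMSO). Lytic HiBit luminescence normalized to DMSO, 4-parameter fit giving DC50 and Dmax; points cytotoxic to […] cells by alamar blue excluded.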

The target in assay [2] is T1, HiBit-KRAS^G12C. Put plainly: HiBit degradation assay in SW1573 HiBit-KRas^G12C cells. The class given is cell-based. Details: expressed in transfected cells; host or cells: SW1573 (clone E6), modified pcDNA3.1 vector, TK promoter. As to conditions: 24 hours. An outline of the steps: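 SW1573 cells stably expressing N-terminally HiBit-tagged KRAS G12C, under the TK promoter, were treated 24 h at 37 °C with 10 μM to 20 nM compound in 0.1% or 0.5% DMSO. Residual HiBit luminescence normalised to DMSO and fitted with a 4-parameter model for DC50 and Dmax. Points with ≥50% viability loss (alamar blue) excluded.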
For orientation: The HiBiT peptide binds its large partner to form an active luciferase.

[3] abbreviates: SW1573, read-out: KRas^G12C-HiBit (SW1573; 0.1% DMSO) Dmax**, SW1573 HiBit-KRas^G12C, 0.1% DMSO.
Where [4] appears, read: SW1573 HiBit-KRas^G12C, 0.1% DMSO, read-out: KRas^G12C-HIBit (SW1573; 0.1% DMSO) DC50*.
The mark [5] stands for this setting: read-out: KRas^G12C-HiBiT (MiaPaCa; 0.1% DMSO) IC50, MiaPaCa-2 HiBit-KRas^G12C cells, 0.1% DMSO.
Where [6] appears, read: read-out: KRas^G12C-HiBiT (MiaPaCa; 0.5% DMSO) IC50, MiaPaCa-2 HiBit-KRas^G12C cells, 0.5% DMSO.
Where [7] appears, read: SW1573, SW1573 HiBit-KRas^G12C, 0.1% DMSO, read-out: KRas^G12C-HiBit (SW1573; 0.1% DMSO) Dmax**.
The mark [8] stands for this setting: SW1573, SW1573 HiBit-KRas^G12C, 0.5% DMSO, read-out: KRas^G12C-HiBiT (SW1573; 0.5% DMSO) Dmax**.
Setting [9] is: read-out: KRas^G12C-HiBiT (SW1573; 0.5% DMSO) IC50***, SW1573 HiBit-KRas^G12C, 0.5% DMSO.
[10] abbreviates: MIA PaCa-2, MiaPaCa-2 HiBit-KRas^G12C cells, 0.1% DMSO, maximum degradation, read-out: KRas^G12C-HiBiT (MiaPaCa; 0.1% DMSO) DMax.
[11] abbreviates: MiaPaCa-2 HiBit-KRas^G12C cells, 0.5% DMSO, maximum degradation.
Where [12] appears, read: SW1573 HiBit-KRas^G12C, 0.5% DMSO.

T1 sequence (P01116 1-186 isoform P01116-2 G12C limits assumed): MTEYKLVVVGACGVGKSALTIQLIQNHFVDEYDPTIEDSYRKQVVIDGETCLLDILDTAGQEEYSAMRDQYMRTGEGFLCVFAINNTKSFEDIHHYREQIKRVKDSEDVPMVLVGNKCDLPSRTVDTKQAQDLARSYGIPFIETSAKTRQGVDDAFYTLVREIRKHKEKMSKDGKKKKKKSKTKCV

Take `C=CC(=O)N1CCN(c2nc(O[C@H](C)CN3CC(CN4CCN(CC(=O)N[C@H](C(=O)N5C[C@H](O)C[C@H]5C(=O)N[C@@H](C)c5ccc(-c6scnc6C)cc5)C(C)(C)C)CC4)C3)nc3c(F)c(-c4cc(O)cc5ccccc45)c(Cl)cc23)CC1` [Compound 59, (2S,4R)-1-[(2S)-2-{2-[4-({1-[(2R)-2-{[6-chloro-8-fluoro-7-(3-hydroxynaphthalen-1-yl)-4-[4-(prop-2-enoyl)piperazin-1-yl]quinazolin-2-yl]oxy}propyl]azetidin-3-yl}methyl)piperazin-1-yl]acetamido}-3,3-dimethylbutanoyl]-4-hydroxy-N-[(1S)-1-[4-(4-methyl-1,3-thiazol-5-yl)phenyl]ethyl]pyrrolidine-2-carboxamide]: the Dmax in assay [1] (MIA PaCa-2, read-out: KRas^G12C-HiBiT (MiaPaCa; 0.1% DMSO) DMax, MiaPaCa-2 HiBit-KRas^G12C cells, 0.1% DMSO, maximum degradation) was under 35%; in assay [2] (setting [3]) it was 35 to 70%. Moreover, in assay [2] (setting [4]), the DC50 is over 1 µM.

For `C=CC(=O)N1CCN(c2nc(O[C@H](C)CN3CCC(OCCOCC(=O)N[C@H](C(=O)N4C[C@H](O)C[C@H]4C(=O)N[C@@H](C)c4ccc(-c5scnc5C)cc4)C(C)(C)C)CC3)nc3c(F)c(-c4c(O)cccc4F)c(Cl)cc23)CC1` [Compound 61, (2S,4R)-1-[(2S)-2-{2-[2-({1-[(2R)-2-{[6-chloro-8-fluoro-7-(2-fluoro-6-hydroxyphenyl)-4-[4-(prop-2-enoyl)piperazin-1-yl]quinazolin-2-yl]oxy}propyl]piperidin-4-yl}oxy)ethoxy]acetamido}-3,3-dimethylbutanoyl]-4-hydroxy-N-[(1S)-1-[4-(4-methyl-1,3-thiazol-5-yl)phenyl]ethyl]pyrrolidine-2-carboxamide], the DC50 was over 1 µM in assay [1] (setting [5]), over 1 µM in assay [1] (setting [6]), 0.1 to 1 µM in assay [2] (setting [4]) and over 1 µM in assay [2] (setting [9]). The values for the Dmax in assay [2] (setting [7]) and in assay [2] (setting [8]) were under 35% and 35 to 70%, respectively.

For `C=CC(=O)N1CCN(c2nc(OCCN3CCC(COCC(=O)N[C@H](C(=O)N4C[C@H](O)C[C@H]4C(=O)N[C@@H](C)c4ccc(-c5scnc5C)cc4)C(C)(C)C)CC3)nc3c(F)c(-c4cc(O)cc5ccccc45)c(Cl)cc23)CC1` [Compound 63, (2S,4R)-1-[(2S)-2-(2-{[1-(2-{[6-chloro-8-fluoro-7-(3-hydroxynaphthalen-1-yl)-4-[4-(prop-2-enoyl)piperazin-1-yl]quinazolin-2-yl]oxy}ethyl)piperidin-4-yl]methoxy}acetamido)-3,3-dimethylbutanoyl]-4-hydroxy-N-[(1S)-1-[4-(4-methyl-1,3-thiazol-5-yl)phenyl]ethyl]pyrrolidine-2-carboxamide], the Dmax in assay [1] (setting [10]) is 35 to 70%; in assay [1] (MIA PaCa-2, MiaPaCa-2 HiBit-KRas^G12C cells, 0.5% DMSO, maximum degradation, read-out: KRas^G12C-HiBiT (MiaPaCa; 0.5% DMSO) DMax), 35 to 70%; in assay [2] (setting [7]), 35 to 70%; in assay [2] (setting [8]), over 70%. For the same compound, the DC50 in assay [2] (setting [4]) fell in the range of 0.1 to 1 µM.

Turning to `C=CC(=O)N1CCN(c2nc(OCCN3CCC(COc4cc([C@H](C(=O)N5C[C@H](O)C[C@H]5C(=O)N[C@@H](C)c5ccc(-c6ccnn6C)cc5)C(C)C)on4)CC3)nc3c(F)c(-c4cc(O)cc5ccccc45)c(Cl)cc23)C[C@@H]1CC#N` [Compound 157, (2S,4R)-1-[(2R)-2-[3-({1-[2-({6-chloro-4-[(3S)-3-(cyanomethyl)-4-(prop-2-enoyl)piperazin-1-yl]-8-fluoro-7-(3-hydroxynaphthalen-1-yl)quinazolin-2-yl}oxy)ethyl]piperidin-4-yl}methoxy)-1,2-oxazol-5-yl]-3-methylbutanoyl]-4-hydroxy-N-[(1S)-1-[4-(1-methyl-1H-pyrazol-5-yl)phenyl]ethyl]pyrrolidine-2-carboxamide], the values for the DC50 in assay [1] (setting [6]) and in assay [2] (setting [9]) were 0.1 to 1 µM and under 0.1 µM, respectively.

With `C=CC(=O)N1CCN(c2nc(OCCN3CCC(OCCOc4cc([C@H](C(=O)N5C[C@H](O)C[C@H]5C(=O)N[C@@H](C)c5ccc(-c6scnc6C)cc5)C(C)C)on4)CC3)nc3c(F)c(-c4cc(O)cc5ccccc45)c(Cl)cc23)C[C@@H]1CC#N` (atropisomer, axis not shown) [Compound 3, (2S,4R)-1-((R)-2-(3-(2-((1-(2-(((S)-4-((S)-4-acryloyl-3-(cyanomethyl)piperazin-1-yl)-6-chloro-8-fluoro-7-(3-hydroxynaphthalen-1-yl)quinazolin-2-yl)oxy)ethyl)piperidin-4-yl)oxy)ethoxy)isoxazol-5-yl)-3-methylbutanoyl)-4-hydroxy-N-((S)-1-(4-(4-methylthiazol-5-yl)phenyl)ethyl)pyrrolidine-2-carboxamide], the “KRas^G12C-HiBiT (MiaPaCa; 0.1% DMSO) DMax” value in assay [1] (MiaPaCa-2 HiBit-KRas^G12C cells, 0.1% DMSO, maximum degradation) is recorded as “A (A ≥ 70)”. Besides, the “KRas^G12C-HiBiT (MiaPaCa; 0.5% DMSO) DMax” value in assay [1] (setting [11]) is recorded as “A (A ≥ 70)”. In addition, the “KRas^G12C-HiBit (SW1573; 0.1% DMSO) Dmax**” value in assay [2] (SW1573 HiBit-KRas^G12C, 0.1% DMSO) is reported as “A (A ≥ 70)”. Besides, the DC50 in assay [2] (setting [4]) was under 0.1 µM.

For the compound `C=CC(=O)N1CCN(c2nc(OCCN3CCC(COc4cc([C@H](C(=O)N5C[C@H](O)C[C@H]5C(=O)N[C@@H](C)c5ccc(-c6scnc6C)cc5)C(C)C)on4)CC3)nc3c(F)c(-c4cc(O)cc5ccccc45)c(Cl)cc23)C[C@@H]1CC#N` (atropisomer, axis not shown) [Compound 104, (2S,4R)-1-[(2R)-2-[3-({1-[2-({6-chloro-4-[(3S)-3-(cyanomethyl)-4-(prop-2-enoyl)piperazin-1-yl]-8-fluoro-7-(3-hydroxynaphthalen-1-yl)quinazolin-2-yl}oxy)ethyl]piperidin-4-yl}methoxy)-1,2-oxazol-5-yl]-3-methylbutanoyl]-4-hydroxy-N-[(1S)-1-[4-(4-methyl-1,3-thiazol-5-yl)phenyl]ethyl]pyrrolidine-2-carboxamide], the “KRas^G12C-HiBiT (MiaPaCa; 0.5% DMSO) DMax” value in assay [1] (setting [11]) was “C (C ≤ 35)”. In addition, the DC50 in assay [1] (setting [6]) and in assay [2] (setting [9]) was 0.1 to 1 µM throughout. The “KRas^G12C-HiBiT (SW1573; 0.5% DMSO) Dmax**” value in assay [2] (setting [12]) is reported as “C (C ≤ 35)”.

For the compound `C=CC(=O)N1CCN(c2nc(OCCN3CCC(COCC(=O)N[C@H](C(=O)N4C[C@H](O)C[C@H]4C(=O)N[C@@H](C)c4ccc(-c5scnc5C)cc4)C(C)(C)C)CC3)nc3c(F)c(-c4cc(O)cc5ccccc45)c(Cl)cc23)C[C@@H]1CC#N` [Compound 17, (2S,4R)-1-[(2S)-2-[2-({1-[2-({6-chloro-4-[(3S)-3-(cyanomethyl)-4-(prop-2-enoyl)piperazin-1-yl]-8-fluoro-7-(3-hydroxynaphthalen-1-yl)quinazolin-2-yl}oxy)ethyl]piperidin-4-yl}methoxy)acetamido]-3,3-dimethylbutanoyl]-4-hydroxy-N-[(1S)-1-[4-(4-methyl-1,3-thiazol-5-yl)phenyl]ethyl]pyrrolidine-2-carboxamide], the Dmax in assay [1] (setting [10]) was over 70%; in assay [2] (setting [7]) it was 35 to 70%. Further, in assay [1] (setting [11]), the “KRas^G12C-HiBiT (MiaPaCa; 0.5% DMSO) DMax” value is listed as “A (A ≥ 70)”. For the same compound, in assay [2] (setting [4]), the DC50 is 0.1 to 1 µM. The “KRas^G12C-HiBiT (SW1573; 0.5% DMSO) Dmax**” value in assay [2] (setting [12]) was “A (A ≥ 70)”.

`C=CC(=O)N1CCN(c2nc(O[C@H](C)CN3CCN(CCCN4CCN(CC(=O)N[C@H](C(=O)N5C[C@H](O)C[C@H]5C(=O)N[C@@H](C)c5ccc(-c6scnc6C)cc5)C(C)(C)C)CC4)CC3)nc3c(F)c(-c4cc(O)cc5ccccc45)c(Cl)cc23)CC1` [Compound 49, (2S,4R)-1-[(2S)-2-{2-[4-(3-{4-[(2R)-2-{[6-chloro-8-fluoro-7-(3-hydroxynaphthalen-1-yl)-4-[4-(prop-2-enoyl)piperazin-1-yl]quinazolin-2-yl]oxy}propyl]piperazin-1-yl}propyl)piperazin-1-yl]acetamido}-3,3-dimethylbutanoyl]-4-hydroxy-N-[(1S)-1-[4-(4-methyl-1,3-thiazol-5-yl)phenyl]ethyl]pyrrolidine-2-carboxamide]: the figures for the DC50 in assay [1] (setting [5]) and in assay [2] (setting [4]) were over 1 µM and 0.1 to 1 µM, respectively. The Dmax in assay [2] (setting [3]) was under 35%.

The record behind these values is US20220370416A1, “COMPOUNDS AND METHODS FOR TARGETED DEGRADATION OF KRAS” (Arvinas Operations, Inc., priority 2020, published 2022).
